Source: patent US6521596B1, “Lanthionine antibiotic compositions and method” (priority 1994, dated 2003)
Where two headings read alike, the source gives them in different places. No end group written: not given here.

How the values were obtained:
[1] = format: physicochemical
From the text: (§1) The mutacins of the present invention have an apparent Mr of about 2,500 Da as determined by high performance liquid chromatography using a size-exclusion column. This is a useful defining parameter which may be determined using the routinely employed technique of column chromatography. However, the highly purified mutacins may be found to have a slightly different exact molecular weights, depending on the technique used, such as the molecular weight of 3,244.64±1.15 Da determined by ion spray mass spectroscopy for the T8-derived mutacin as determined from the m/z values, wherein z is equal to 2, 3, or 4 for m / z values 1623, 1083 and 812, respectively (see FIG. 4). Furthermore, the mutacin is thermostable, as measured by, e.g., incubating an agar plug at 100° C. for 30 minutes and quantitating bacteriocidal activity. The mutacin is stable over a pH range of 4-10, as measured by incubating the purified mutacin for 24 hours in appropriate 0.1 M buffers, e.g., such as acetate, phosphate or glycine buffers, at room temperature, and tested for bacteriocidal activity.
(§2) Mutacin was sensitive to trypsin. After 10 min incubation with the protease, no activity in sample was detected. Control samples without trypsin retained their full activity under identical conditions. Mutacin was thermostable as analyzed by residual activity after incubation at 80° C. for 30 min, and by incubating at 100° C. in loading buffer.

[2] = format: physicochemical; remark: listed apart in the source
From the text: as §1
Purified mutacin was mixed with different 0.1 M buffers in range pH 4-11 (sodium acetate pH 4-6; sodium phosphate pH 7-8; glycine-NaOH pH 8-11). After one or 24 h incubation at room temperature, residual mutacin activity was assayed using the spot test described above. […]

[3] = test system: trypsin; experiment: Sensitivity to trypsin (residual mutacin activity); format: physicochemical
Procedure: Sensitivity to trypsin (Sigma Chemical Co., St. Louis, Mo.) was determined according to the manufacturer's recommendation by incubating purified mutacin (4096 BU) in 50 ml of 50 mM sodium phosphate buffer pH 7.5 with trypsin (2 mg) at room temperature. Samples were analyzed for residual mutacin activity at various time intervals.
as §2

[4] = Isoelectric point (electrophoretic mobility / isoelectric focusing); format: physicochemical; settings: based on electrophoretic mobility
[5] = test system: Actinomyces viscosus; experiment: Deferred antagonism assay on trypticase soy-yeast agar plates; format: cell-based; settings: zone of inhibition
[6] = test system: Bacillus subtilis 1687; experiment: as above; format: cell-based; settings: zone of inhibition
[7] = test system: Clostridium sporogenes; experiment: as above; format: cell-based; settings: Clostridium sporogenes (ATCC 19606); zone of inhibition
[8] = test system: Mycobacterium phlei; experiment: as above; format: cell-based; settings: zone of inhibition
[9] = test system: Staphylococcus aureus; experiment: as above; format: cell-based; parameters: key: S, sensitive (zone radius >2 mm); SS, zone radius >S; settings: zone of inhibition
[10] = test system: Streptococcus faecalis 78.4; experiment: as above; format: cell-based; settings: zone of inhibition
[11] = test system: Streptococcus faecium; experiment: as above; format: cell-based; settings: zone of inhibition
[12] = test system: Streptococcus lactis; experiment: as above; format: cell-based; settings: zone of inhibition
[13] = test system: Streptococcus mitis; experiment: as above; format: cell-based; settings: zone of inhibition
[14] = test system: Streptococcus mutans GS-5; experiment: as above; format: cell-based; settings: zone of inhibition
[15] = test system: Streptococcus mutans 130; experiment: as above; format: cell-based; settings: zone of inhibition
[16] = test system: Streptococcus mutans 159; experiment: as above; format: cell-based; settings: zone of inhibition
[17] = test system: Streptococcus mutans WT; experiment: as above; format: cell-based; settings: zone of inhibition
Procedure: (§3) Mutacin production was detected by deferred antagonism technique on trypticase soy-yeast agar (TSAY) using S. sobrinus OMZ176, S. mutans 10449, or S. sanguis Ny101 as sensitive indicators (Parrot, et al., 1990). Mutacin present in liquid culture was quantified by spotting […] of 2-fold dilutions of mutacin in phosphate buffered saline (PBS) onto the surface of TSAY overlaid with indicator strain as described. Spots were allowed to dry for 1 h, then the plates were incubated anaerobically for 24 h. The lowest titer yielding a zone of inhibition having clear edges was defined as one bacteriocin unit (BU).
(§4) Biological activity may also be measured by overlaying thin layer chromatography or SDS-PAGE gels with an indicator strain.

[18] = test system: Streptococcus sanguis; experiment: as above; format: cell-based; settings: zone of inhibition
Procedure: as §3, §4

[19] = test system: Streptococcus rattus; experiment: as above; format: cell-based; settings: zone of inhibition
[20] = test system: Streptococcus salivarius; experiment: as above; format: cell-based; settings: zone of inhibition
[21] = test system: Streptococcus pyogenes; experiment: as above; format: cell-based; parameters: key: S, sensitive (zone radius >2 mm); SS, zone radius >S; settings: zone of inhibition
[22] = test system: Streptococcus pneumoniae; experiment: as above; format: cell-based; parameters: key: S, sensitive (zone radius >2 mm); SS, zone radius >S; settings: zone of inhibition
[23] = single substitution of Ile for Glu at position 4, versus unmodified subtilin; cited from earlier work
[24] = test system: S. sobrinus OMZ176, S. mutans 10449, or S. sanguis Ny101 as sensitive indicators; experiment: Mutacin assay: spot test of 2-fold dilutions, bacteriocin units (BU); format: cell-based; settings: bacteriocin units per mg total protein, at stages of purification
From the text: The isolated antimicrobial mutacin polypeptides of the invention are generally characterized as having substantial bacteriocidal activity. As used herein the term “substantial bacteriocidal activity” describes significant mutacin-directed bacterial killing, as measured by any one of a variety of assays. Bacteriocidal activity may be advantageously examined and quantified by the deferred antagonism technique on trypticase soy-yeast agar (TSAY) using S. sobrinus OMZ176 or S. sanguis Ny101 as sensitive indicators (Parrot, et al., 1990). A unit of bacteriocidal activity (BU), present in liquid culture, is described as the lowest titer yielding a clear lytic-like zone of inhibition having clear edges and greater than 10 mm in diameter. Chikindas et al. describes arbitrary units (AU) of activity, which are essentially identical to bacteriocidal activity units. […]
as §3, with “Spots were allowed to dry for 1 h, then the plates were incubated anaerobically for 24 h. The lowest titer yielding a zone of inhibition having clear edges was defined as one bacteriocin unit (BU).” left out

Mutacin: lanthionine-containing polypeptide antibiotic (lantibiotic) purified from Streptococcus mutans T8 or UA96; N-terminus Asn Arg Trp Trp Gln Gly Val Val (NRWWQGVVPTVSYECRMNSWQHVFTCC; cysteine pairing not given here; also: lanthionine-containing lantibiotic, lanthionines not placed; UniProt O54329 27-53, looked up)
Temperature (thermostable) [1]: thermostable > 100 °C
thermostability, residual activity after incubation [1]: thermostable
Temperature (thermostable) ([1]; listed as mutacin): up to 100 °C
pH (stable range) ([2]; listed as mutacin): 4-10
residual activity after incubation at pH 11 ([2]; pH 11, 0.1 M glycine-NaOH, one or 24 h at room temperature, spot test): about 50%
Trypsin (sensitivity) [3]: sensitive
residual mutacin activity after incubation with trypsin ([3]; 10 min, 4096 BU mutacin, trypsin 2 mg, 50 mM sodium phosphate pH 7.5, room temperature): no activity
pI (isoelectric point) [4]: ≧8.4 (based on electrophoretic
Sensitivity [5]: S (S, sensitive (zone radius >2 mm))
Sensitivity [6]: S (S, sensitive (zone radius >2 mm))
Sensitivity [7]: S (S, sensitive (zone radius >2 mm))
Sensitivity [8]: S (S, sensitive (zone radius >2 mm))
Sensitivity [9]: SS
Sensitivity [10]: S (S, sensitive (zone radius >2 mm))
Sensitivity [11]: S (S, sensitive (zone radius >2 mm))
Sensitivity [12]: S (S, sensitive (zone radius >2 mm))
Sensitivity [13]: S (S, sensitive (zone radius >2 mm))
Sensitivity [14]: S (S, sensitive (zone radius >2 mm))
Sensitivity [15]: S (S, sensitive (zone radius >2 mm))
Sensitivity [16]: S (S, sensitive (zone radius >2 mm))
Sensitivity [17]: S (S, sensitive (zone radius >2 mm))
Sensitivity [18]: S (S, sensitive (zone radius >2 mm))
Sensitivity [19]: S (S, sensitive (zone radius >2 mm))
Sensitivity [20]: S (S, sensitive (zone radius >2 mm))
Sensitivity [21]: SS
Sensitivity [22]: SS

C=C1NC(=O)CC[C@@H](C(=O)O)NC(=O)[C@H](NC(=O)[C@H](CCCCN)NC(=O)[C@@H](N)Cc2c[nH]c3ccccc23)CSC[C@@H](C(=O)N[C@@H]2C(=O)N3CCC[C@H]3C(=O)NCC(=O)N[C@H](C(=O)N[C@H](C(=O)N[C@@H]3C(=O)NCC(=O)N[C@@H](C)C(=O)N[C@@H](CC(C)C)C(=O)N[C@@H](CCC(N)=O)C(=O)N/C(=C/C)C(=O)N[C@H](C(=O)N[C@@H](Cc4ccccc4)C(=O)N[C@@H](CC(C)C)C(=O)N[C@@H](CCC(N)=O)C(=O)N[C@@H]4C(=O)N[C@@H](CC(C)C)C(=O)N[C@H]5C(=O)N[C@@H](CSC4C)C(=O)NC(=O)[C@H](CC(N)=O)N[C@H](C(=O)N[C@@H](CCCCN)C(=O)N[C@H](C(=O)NC(=C)C(=O)N[C@@H](CCCCN)C(=O)O)[C@@H](C)CC)CSC5C)CSC3C)C(C)C)CSC2C)N[C@@H](CC(C)C)C(=O)NC1=O (stereo partly shown) [subtilin]
increase of the biological half-life [23]: 57 fold

Water precipitate from 8M urea: final preparation of mutacin, solubilized in 8 M urea and precipitated with water; over 90% pure (NRWWQGVVPTVSYECRMNSWQHVFTCC; cysteine pairing not given here; also: lanthionine-containing lantibiotic, lanthionines not placed; UniProt O54329 27-53, looked up)
Spec. activity [24]: 150,187 BU/mg
